Results as given in US20090197934A1, “IMIDAZOLINYLMETHYL ARYL SULFONAMIDE” (priority 2008, published 2009).

Columns and labels:
alpha-1A adrenoceptors = molecular target: T1, alpha-1A adrenoceptors (Homo sapiens, UniProt P35348); test: alpha-1A adrenoceptor partial agonist activity (intrinsic activity and pEC50); type: cell-based
T1 sequence (P35348 1-466): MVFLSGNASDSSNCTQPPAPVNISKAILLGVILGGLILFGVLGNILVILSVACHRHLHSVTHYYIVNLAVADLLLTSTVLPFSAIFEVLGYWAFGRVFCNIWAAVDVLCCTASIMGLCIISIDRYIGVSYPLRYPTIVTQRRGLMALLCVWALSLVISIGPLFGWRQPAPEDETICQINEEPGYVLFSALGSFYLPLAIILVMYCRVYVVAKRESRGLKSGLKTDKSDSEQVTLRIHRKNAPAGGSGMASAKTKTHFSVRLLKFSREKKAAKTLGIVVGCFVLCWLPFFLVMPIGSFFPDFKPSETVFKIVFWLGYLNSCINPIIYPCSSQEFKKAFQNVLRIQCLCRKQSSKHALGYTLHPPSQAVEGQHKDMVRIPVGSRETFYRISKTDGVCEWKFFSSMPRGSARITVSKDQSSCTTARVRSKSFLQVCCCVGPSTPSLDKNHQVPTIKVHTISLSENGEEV

[1] = test system: Female Yucatan Micro-Swine; test: Conscious Pig Model (IUP, MAP and HR during iv infusion); type: in vivo
Experimental: In general, IUP is the intraurethral pressure and is measured as the 2 minute mean from the first peak of the urethral response (FIG. 1). MAP is the mean arterial blood pressure and is measured as the average blood pressure during the 2 minute section where IUP is measured. The durability is the slope of the IUP response in mmHg/min and is calculated immediately after the 2 minute IUP response for 5 minutes (2-7 minutes post the first peak) for the top 3 doses.
Sling Training: Female Yucatan Micro-Swine were trained to stay in a sling for up to 4 hours. Swine were exposed to progressively longer sling durations per IACUC sling-training guideline.
Surgical Instrumentation: Female Yucatan Micro-swine were instrumented with a telemetry device with both pressure and ECG monitoring capabilities (Data Sciences International St Paul Minn.). In addition, a Bardport low profile titanium VAP was placed subcutanteously for blood sampling. All devices were implanted by the surgical veterinarian at Roche Palo Alto. Briefly, the telemetry probe body was placed subcutaneously in the cervical region. The intra-arterial pressure catheter was advanced via the superficial cervical artery into the subclavian artery for blood pressure measurement. The ECG leads were placed intra-muscularly: one in the intercostal muscle between the T8-T10 regions on the left side, and the other in the intercostal muscles between the T1-T3 regions on the right side. The VAP was placed subcutaneously in the neck region, with the catheter advanced into the jugular vein. Swine were allowed to fully recover from the surgery (typically 10 days). […]
Experiment: After the swine was fully awake and stable (usually approximately 1 hour post wake up), baseline blood pressure, IUP, and heart rate parameters were determined. […]
Data Generating and Analysis Systems: Cardiovascular readings were generated by the TL11M3-D70-PCP (Data Sciences International, St. Paul, Minn.) telemetry device and associated hardware. […] IUP was monitored by a solid state catheter connected to a TA6000 Polygraph (Data Sciences International, St. Paul, Minn.). […]

CS(=O)(=O)Nc1cc(F)c(CC2=NCCN2)c(Br)c1Cl [Formula I, N-[3-Bromo-2-chloro-4-(4,5-dihydro-1H-imidazol-2-ylmethyl)-5-fluoro-phenyl]-methanesulfonamide]
intrinsic activity, or efficacy, as a partial agonist (alpha-1A adrenoceptors; ideally between 0.35 to 0.60): 0.45 | EC50 (alpha-1A adrenoceptors; read-out: affinity, or pEC50 value (converted)): 0.316 µM | maximum arterial blood pressure effect [1]: low | selectivity for enhancement of intraurethral pressure (IUP) over blood pressure (MAP) [1]: selectivity for enhancement of intraurethral pressure (IUP) over blood pressure (MAP) | durability of IUP response over time ([1]; compared to analogue compound lacking the 3-bromo and 5-fluoro substituents (FIG. 1b vs FIG. 1c)): unexpectedly increased durability of IUP response over time
